# Experimental data reported in the supplement of paper PMC5579334.
# ± gives the standard deviation of the averaged measurements.
# Columns and labels:
# [1] = system: HSC1 (primary human Schwann cells); assay: drug sensitivity score (DSS, CellTiter-Glo viability, 72 h) (DSS (dimensionless)); higher = more sensitive; extreme values may be limits of the assay
# Procedure, shortened: (§1)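 After seeding 750–1000 cells per well of MPNST cell lines or primary human Schwann cells into 384-well plates preprinted with each compound at five concentrations in 10-fold steps, plates were kept 72 h at 37 °C, 5% CO2. Viability was read as CellTiter-Glo ATP luminescence relative to vehicle and positive-control wells, with duplicates averaged where present. The data were fitted with four-parameter logistic models. Drug sensitivity score and relative IC50, censored at the top concentration, derive from the fits, and percent inhibition refers to the top concentration.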
# [2] = system: HSC2 (primary human Schwann cells); assay: as above
# Procedure, shortened: as §1
# [3] = system: S1507-2; assay: as above
# Procedure, shortened: as §1
# [4] = system: S462; assay: as above
# Procedure, shortened: as §1
# [5] = system: ST8814; assay: as above
# Procedure, shortened: as §1
# [6] = system: STS26T; assay: as above
# Procedure, shortened: as §1
# [7] = system: HSC1 (primary human Schwann cells); assay: drug sensitivity score (DSS, CellTox-Green cytotoxicity, 72 h) (DSS (dimensionless)); higher = more cytotoxic; extreme values may be limits of the assay
# Procedure, shortened: (§2)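 For 72 h at 37 °C, MPNST cell lines and primary human Schwann cells were exposed in 384-well plates to five 10-fold compound dilutions. CellTox-Green, added before seeding at a final 1:1000 dilution, gave fluorescence from DNA released by disrupted cells. Signals were scaled to vehicle and positive-control wells, cultures failing plate quality control were left out, and four-parameter logistic fits were applied. Relative IC50 and drug sensitivity score were derived from the fits, with IC50 censored at the top concentration.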
# [8] = system: HSC2 (primary human Schwann cells); assay: as above
# Procedure, shortened: as §2
# [9] = system: S1507-2; assay: as above
# Procedure, shortened: as §2
# [10] = system: ST8814; assay: as above
# Procedure, shortened: as §2
# [11] = system: STS26T; assay: as above
# Procedure, shortened: as §2
# [12] = system: HSC1 (primary human Schwann cells); assay: % inhibition of CellTiter-Glo viability at highest tested concentration (72 h), relative to DMSO and benzethonium chloride controls; higher = more inhibition
# Procedure, shortened: as §1
# [13] = system: HSC2 (primary human Schwann cells); assay: as above
# Procedure, shortened: as §1
# [14] = system: S1507-2; assay: as above
# Procedure, shortened: as §1
# [15] = system: S462; assay: as above
# Procedure, shortened: as §1
# [16] = system: ST8814; assay: as above
# Procedure, shortened: as §1
# [17] = system: STS26T; assay: as above
# Procedure, shortened: as §1
SMILES,drug sensitivity score [1],drug sensitivity score [2],drug sensitivity score [3],drug sensitivity score [4],drug sensitivity score [5],drug sensitivity score [6],drug sensitivity score [7],drug sensitivity score [8],drug sensitivity score [9],drug sensitivity score [10],drug sensitivity score [11],% inhibition [12] [%],% inhibition [13] [%],% inhibition [14] [%],% inhibition [15] [%],% inhibition [16] [%],% inhibition [17] [%]
O=C(O)C1(C(=O)O)CCC1.[NH2-].[NH2-].[Pt+2] [Carboplatin aq] (max concentration tested 100000 nM),8.01,8.82,5.78 ± 1.4,8.728 ± 0.04,6.09,6.61,6.3,7.86,2.71 ± 1.2,6.79,4.47,85.9,93.2,73.8 ± 1.3,98.3 ± 1,87.5,81.2
CC(C)NC[C@@H](C(=O)N1CCN(c2ncnc3c2[C@H](C)C[C@H]3O)CC1)c1ccc(Cl)cc1 [GDC-0068] (max concentration tested 10000 nM),0.374,0,2.03 ± 1,0.195 ± 0.28,0.785,5.77,0,0,0,0,0,21.6,6.99,31.5 ± 4.2,13.5 ± 7.9,17.1,44
Cc1sc2c(c1C)C(c1ccc(Cl)cc1)=N[C@H](CC(=O)OC(C)(C)C)c1nnc(C)n1-2 [(-)JQ1] (max concentration tested 10000 nM),0.0114,0.217,0.382 ± 0.54,0.987 ± 0.67,0.724,0.598,0,0,0,0,0,11,15.6,12.5 ± 8.2,21.6 ± 8.9,20,15.6
CC(=O)N(O)CCCCCNC(=O)CCC(=O)N(O)CCCCCNC(=O)CCC(=O)N(O)CCCCCN [Deferoxamine aq] (max concentration tested 10000 nM),5.55,7.69,6.96 ± 1,6.82 ± 1.4,9.08,5.09,0,0,0.026 ± 0.037,3.55,0,60.6,64.9,61 ± 2.2,74.6 ± 9.3,88.2,52.3
N[C@@H](Cc1ccc(N(CCCl)CCCl)cc1)C(=O)O [Melphalan aq] (max concentration tested 12500 nM),0.445,0,0,0,0,0,0,0,0,0,0,18.7,6.78,6.15 ± 8.2,5.6 ± 3,3.22,2.1
N[C@@H](CSC(c1ccccc1)(c1ccccc1)c1ccccc1)C(=O)O [S-trityl-L-cysteine] (max concentration tested 40000 nM),0.233,0,0,0.0379 ± 0.054,0,0.0666,0,0,0,0,0,14.8,-1.33,3.83 ± 4.3,8.17 ± 9.1,7.25,13
C[C@H]1C=C2C(=O)O[C@H]3CC[C@@H](C1)[C@@]23O [Galiellalactone] (max concentration tested 50000 nM),11.2,7.95,7.75 ± 0.57,9.23 ± 1.4,7.08,9.38,0.367,0,2.69 ± 1.4,0,2.26,97.6,98.5,92.8 ± 14,100 ± 2.5,88.9,101
c1cc(CN2CCCNCCNCCCNCC2)ccc1CN1CCCNCCNCCCNCC1 [Plerixafor aq] (max concentration tested 10000 nM),0,0,0,0,0,0,0,2.79,5.26 ± 3,0,0.908,-10.1,-6.48,-14.1 ± 20,-4.54 ± 3.1,4.25,3.99
COc1ncc(-c2ccc3nccc(-c4ccnnc4)c3c2)cc1NS(=O)(=O)c1ccc(F)cc1F (max concentration tested 1000 nM),16.1,15.8,14 ± 0.98,10.1 ± 1.8,12.8,16.6,0,0,0.225 ± 0.23,4,0.0475,84.4,84.1,72.9 ± 5.3,75.23 ± 0.42,90,83.4
NC(=O)c1cccc2cn(-c3ccc(C4CCCNC4)cc3)nc12 (stereo not given) [MK-4827] (max concentration tested 10000 nM),2.86,1.47,5.09 ± 0.48,8.55 ± 0.22,8.12,6.01,0,0,0.763 ± 1.1,4.56,0.673,40,23.4,57.5 ± 6.1,86.1 ± 3,89.5,67.6
